Patent publication US11541055B2, “Inhibitors of human immunodeficiency virus replication” (ViiV Healthcare UK (No. 5) LIMITED, priority 2018, dated 2023)

Legend:
[1] = test system: recombinant NL4-3 virus (Renilla luciferase) in MT-2 cells; assay: HIV cell culture assay (antiviral activity, luciferase readout); format: cell-based; conditions: Renilla, NL43
Procedure, shortened: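 Antiviral EC50 was derived via the median effect equation from luciferase signal. The signal came from MT-2 cultures infected for 4–5 days with a nef-deleted, Renilla luciferase-expressing NL4-3 reporter virus (made in 293T cells) in the presence of compound dilutions.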

[2] = Compound cytotoxicity, XTT-based colorimetric assay; format: cell-based; conditions: human; uninfected MT2 cells, day 4, XTT
Procedure, shortened: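 Run under the antiviral-assay protocol but without virus. Viability was read on day 4 and CC50 values were derived from the readout.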

Compound	EC50 [1] [nM]	CC50 at 4 days [2] [nM]
COc1cc(C(F)(F)F)nc(-c2ccc3c(=O)n(-c4ccc(Cl)c5c(NS(C)(=O)=O)nn(C)c45)c([C@H](Cc4cc(F)cc(F)c4)NC(=O)Cn4nc(C(F)F)c5c4C(F)(F)[C@@H]4C[C@H]54)nc3c2)n1 (atropisomer, axis not shown; (P)) [Example 54, N—((S)-1-((3P)-3-(4-chloro-1-methyl-3-(methylsulfonamido)-1H-indazol-7-yl)-7-(4-methoxy-6-(trifluoromethyl)pyrimidin-2-yl)-4-oxo-3,4-dihydroquinazolin-2-yl)-2-(3,5-difluorophenyl)ethyl)-2-((3bS,4aR)-3-(difluoromethyl)-5,5-difluoro-3b,4,4a,5-tetrahydro-1H-cyclopropa[3,4]cyclopenta[1,2-c]pyrazol-1-yl)acetamide]	0.31	> 500
Cc1ccc(-c2ccc3c(=O)n(-c4ccc(Cl)c5c(NS(C)(=O)=O)nn(C)c45)c([C@H](Cc4cc(F)cc(F)c4)NC(=O)Cn4nc(C(F)F)c5c4C(F)(F)[C@@H]4C[C@H]54)nc3c2)nn1 (atropisomer, axis not shown; (P)) [Example 50, N—((S)-1-((3P)-3-(4-chloro-1-methyl-3-(methylsulfonamido)-1H-indazol-7-yl)-7-(6-methylpyridazin-3-yl)-4-oxo-3,4-dihydroquinazolin-2-yl)-2-(3,5-difluorophenyl)ethyl)-2-((3bS,4aR)-3-(difluoromethyl)-5,5-difluoro-3b,4,4a,5-tetrahydro-1H-cyclopropa[3,4]cyclopenta[1,2-c]pyrazol-1-yl)acetamide]	0.047	> 500
Cc1ncc(-c2ccc3c(=O)n(-c4ccc(Cl)c5c(NS(C)(=O)=O)nn(C)c45)c([C@H](Cc4cc(F)cc(F)c4)NC(=O)Cn4nc(C(F)F)c5c4C(F)(F)[C@@H]4C[C@H]54)nc3c2)s1 (atropisomer, axis not shown; (P)) [Example 26, N—((S)-1-((3P)-3-(4-chloro-1-methyl-3-(methylsulfonamido)-1H-indazol-7-yl)-7-(2-methylthiazol-5-yl)-4-oxo-3,4-dihydroquinazolin-2-yl)-2-(3,5-difluorophenyl)ethyl)-2-((3bS,4aR)-3-(difluoromethyl)-5,5-difluoro-3b,4,4a,5-tetrahydro-1H-cyclopropa[3,4]cyclopenta[1,2-c]pyrazol-1-yl)acetamide]	0.11	> 500
Cc1nccc(-c2ccc3c(=O)n(-c4ccc(Cl)c5c(NS(C)(=O)=O)nn(C)c45)c([C@H](Cc4cc(F)cc(F)c4)NC(=O)Cn4nc(C(F)F)c5c4C(F)(F)[C@@H]4C[C@H]54)nc3c2)n1 [Example 10, N—((S)-1-((3P)-3-(4-chloro-1-methyl-3-(methylsulfonamido)-1H-indazol-7-yl)-7-(2-methylpyrimidin-4-yl)-4-oxo-3,4-dihydroquinazolin-2-yl)-2-(3,5-difluorophenyl)ethyl)-2-((3bS,4aR)-3-(difluoromethyl)-5,5-difluoro-3b,4,4a,5-tetrahydro-1H-cyclopropa[3,4]cyclopenta[1,2-c]pyrazol-1-yl)acetamide]	0.042	> 500
Cc1ccc(-n2c([C@H](Cc3cc(F)cc(F)c3)NC(=O)Cn3nc(C(F)F)c4c3C(F)(F)[C@@H]3C[C@H]43)nc3cc(-c4ccccc4S(=O)(=O)C(C)(C)C)ccc3c2=O)c2c1c(NS(=O)(=O)C1CC1)nn2CC(F)F (atropisomer, axis not shown) [Example 142, N-[(1S)-1-{3-[3-cyclopropanesulfonamido-1-(2,2-difluoroethyl)-4-methyl-1H-indazol-7-yl]-7-[2-(2-methylpropane-2-sulfonyl)phenyl]-4-oxo-3,4-dihydroquinazolin-2-yl}-2-(3,5-difluorophenyl)ethyl]-2-[(2S,4R)-9-(difluoromethyl)-5,5-difluoro-7,8-diazatricyclo[4.3.0.0^2,^4]nona-1(6),8-dien-7-yl]acetamide]	0.38	> 500
CS(=O)(=O)Nc1nn(CC(F)F)c2c(-n3c([C@H](Cc4cc(F)cc(F)c4)NC(=O)Cn4nc(C(F)F)c5c4C(F)(F)[C@@H]4C[C@H]54)nc4cc(-c5nccc(C(F)(F)F)n5)ccc4c3=O)ccc(Cl)c12 (atropisomer, axis not shown) [Example 128, N-[(1S)-1-{3-[4-chloro-1-(2,2-difluoroethyl)-3-methanesulfonamido-1H-indazol-7-yl]-4-oxo-7-[4-(trifluoromethyl)pyrimidin-2-yl]-3,4-dihydroquinazolin-2-yl}-2-(3,5-difluorophenyl)ethyl]-2-[(2S,4R)-9-(difluoromethyl)-5,5-difluoro-7,8-diazatricyclo[4.3.0.0^2,^4]nona-1(6),8-dien-7-yl]acetamide]	0.079	> 500
Cc1ncc(F)c(-c2ccc3c(=O)n(-c4ccc(C)c5c(NS(C)(=O)=O)nn(C)c45)c([C@H](Cc4cc(F)cc(F)c4)NC(=O)Cn4nc(C(F)F)c5c4C(F)(F)[C@@H]4C[C@H]54)nc3c2)n1 (atropisomer, axis not shown) [Example 140, 2-[(2S,4R)-9-(difluoromethyl)-5,5-difluoro-7,8-diazatricyclo[4.3.0.0^2,^4]nona-1(6),8-dien-7-yl]-N-[(1S)-2-(3,5-difluorophenyl)-1-[7-(5-fluoro-2-methylpyrimidin-4-yl)-3-(3-methanesulfonamido-1,4-dimethyl-1H-indazol-7-yl)-4-oxo-3,4-dihydroquinazolin-2-yl]ethyl]acetamide]	0.097	> 500
Cc1nc(C)c(C)c(-c2ccc3c(=O)n(-c4ccc(Cl)c5c(NS(=O)(=O)C6CC6)nn(CC(F)F)c45)c([C@H](Cc4cc(F)cc(F)c4)NC(=O)Cn4nc(C(F)F)c5c4C(F)(F)[C@@H]4C[C@H]54)nc3c2)n1 (atropisomer, axis not shown; (P)) [Example 92, N—((S)-1-((3P)-3-(4-chloro-3-(cyclopropanesulfonamido)-1-(2,2-difluoroethyl)-1H-indazol-7-yl)-4-oxo-7-(2,5,6-trimethylpyrimidin-4-yl)-3,4-dihydroquinazolin-2-yl)-2-(3,5-difluorophenyl)ethyl)-2-((3bS,4aR)-3-(difluoromethyl)-5,5-difluoro-3b,4,4a,5-tetrahydro-1H-cyclopropa[3,4]cyclopenta[1,2-c]pyrazol-1-yl)acetamide]	0.1	> 500
CCc1cc(-c2ccc3c(=O)n(-c4ccc(Cl)c5c(NS(=O)(=O)C6CC6)nn(CC(F)F)c45)c([C@H](Cc4cc(F)cc(F)c4)NC(=O)Cn4nc(C(F)F)c5c4C(F)(F)[C@@H]4C[C@H]54)nc3c2)nc(C)n1 (atropisomer, axis not shown; (P)) [Example 94, N—((S)-1-((3P)-3-(4-chloro-3-(cyclopropanesulfonamido)-1-(2,2-difluoroethyl)-1H-indazol-7-yl)-7-(6-ethyl-2-methylpyrimidin-4-yl)-4-oxo-3,4-dihydroquinazolin-2-yl)-2-(3,5-difluorophenyl)ethyl)-2-((3bS,4aR)-3-(difluoromethyl)-5,5-difluoro-3b,4,4a,5-tetrahydro-1H-cyclopropa[3,4]cyclopenta[1,2-c]pyrazol-1-yl)acetamide]	0.13	> 500
CCc1ccnc(-c2ccc3c(=O)n(-c4ccc(Cl)c5c(NS(=O)(=O)C6CC6)nn(CC(F)F)c45)c([C@H](Cc4cc(F)cc(F)c4)NC(=O)Cn4nc(C(F)F)c5c4C(F)(F)[C@@H]4C[C@H]54)nc3c2)n1 (atropisomer, axis not shown; (P)) [Example 93, N—((S)-1-((3P)-3-(4-chloro-3-(cyclopropanesulfonamido)-1-(2,2-difluoroethyl)-1H-indazol-7-yl)-7-(4-ethylpyrimidin-2-yl)-4-oxo-3,4-dihydroquinazolin-2-yl)-2-(3,5-difluorophenyl)ethyl)-2-((3bS,4aR)-3-(difluoromethyl)-5,5-difluoro-3b,4,4a,5-tetrahydro-1H-cyclopropa[3,4]cyclopenta[1,2-c]pyrazol-1-yl)acetamide]	0.18	> 500
Cc1cc(C)nc(-c2ccc3c(=O)n(-c4ccc(Cl)c5c(NS(C)(=O)=O)nn(CC(F)F)c45)c([C@H](Cc4cc(F)cc(F)c4)NC(=O)Cn4nc(C(F)F)c5c4C(F)(F)[C@@H]4C[C@H]54)nc3c2)c1 (atropisomer, axis not shown) [Example 137, N-[(1S)-1-{3-[4-chloro-1-(2,2-difluoroethyl)-3-methanesulfonamido-1H-indazol-7-yl]-7-(4,6-dimethylpyridin-2-yl)-4-oxo-3,4-dihydroquinazolin-2-yl}-2-(3,5-difluorophenyl)ethyl]-2-[(2S,4R)-9-(difluoromethyl)-5,5-difluoro-7,8-diazatricyclo[4.3.0.0^2,^4]nona-1(6),8-dien-7-yl]acetamide]	0.2	> 500
CN(c1cccc(-c2ccc3c(=O)n(-c4ccc(Cl)c5c(NS(C)(=O)=O)nn(C)c45)c([C@H](Cc4cc(F)cc(F)c4)NC(=O)Cn4nc(C(F)F)c5c4C(F)(F)[C@@H]4C[C@H]54)nc3c2)c1)S(C)(=O)=O [Example 28, N—((S)-1-((3P)-3-(4-chloro-1-methyl-3-(methylsulfonamido)-1H-indazol-7-yl)-7-(3-(N-methylmethylsulfonamido)phenyl)-4-oxo-3,4-dihydroquinazolin-2-yl)-2-(3,5-difluorophenyl)ethyl)-2-((3bS,4aR)-3-(difluoromethyl)-5,5-difluoro-3b,4,4a,5-tetrahydro-1H-cyclopropa[3,4]cyclopenta[1,2-c]pyrazol-1-yl)acetamide]	0.22	> 500
